Patent publication US9580444B2, “Polycyclic pyrazolinone derivative and herbicide comprising same as effective component thereof” (priority 2013, dated 2017)

Assays:
Assay type in all cases: in vivo
Conditions in all cases: 500 g a.i/ha, foliage treatment after emergence, about 14 days after treatment, score 0-5
[1] = tested on: Abutilon theophrasti (velvetleaf); test: Test Example-4: herbicidal effect by a foliage treatment after weeds are generated under upland field conditions
From the text: (§1) Using the formulation prepared according to the methods described above, the herbicidal effect of the bicyclic pyrazolinone derivative of the invention according to the methods shown in Test Examples below was examined. The herbicidal effect with respect to the test weeds or the phytotoxicity with respect to the test crops was examined according to the following criteria, and evaluated in six stage scores of 0 to 5. A vat having an area of 65 cm^2 and a depth of 2 cm was filled with upland soil, then, seeds of Amaranthus viridis (green amaranthus), Abutilon theophrasti (velvetleaf), Chenopodium album (common lambsquarters), […]. While watering was suitably performed on there, the seeds were grown for 14 days. A wettable powder or an emulsifiable concentrate of the compound of the present invention prepared according to Formulation Example was diluted, and a spray treatment was uniformly performed on the foliage portion of the plant so as to be a predetermined dosage in the amount of water of 4000 L per hectare. The herbicidal effect with respect to the test weeds and the phytotoxicity with respect to corn about 14 days after the treatment were evaluated according to the evaluation criteria in six stages of 0 to 5 described above.

[2] = tested on: Amaranthus viridis (green amaranthus); test: as above
From the text: as §1

[3] = tested on: Chenopodium album (common lambsquarters); test: as above
From the text: as §1

corn = test: Test Example-4: phytotoxicity by a foliage treatment after weeds are generated under upland field conditions
From the text: as §1

Compound	Herbicidal effect Abutilon theophrast [1]	Herbicidal effect Amaranthus viridis [2]	Herbicidal effect Chenopodium album [3]	Phytotoxicity Corn (corn)
CC1(COc2cc(-c3c(Cl)n4n(c3=O)CCCC4)c(F)cc2Cl)CC(c2ccc(Cl)cc2)=NO1 (stereo not drawn) [Example 4-8]	5 (Herbicidal effect/phytotoxicity was 90% or greater)	5 (Herbicidal effect/phytotoxicity was 90% or greater)	5 (Herbicidal effect/phytotoxicity was 90% or greater)	2 (Herbicidal effect/phytotoxicity was 30% to 50%)
CC(C)Oc1ccccc1Oc1cc(-c2c(Cl)n3n(c2=O)CCCC3)c(F)cc1Cl [Example 3-8]	5 (Herbicidal effect/phytotoxicity was 90% or greater)	5 (Herbicidal effect/phytotoxicity was 90% or greater)	5 (Herbicidal effect/phytotoxicity was 90% or greater)	0 (Herbicidal effect/phytotoxicity was 0% to 10%)
C=CCOC(=O)C=C(COc1cc(-c2c(Cl)n3n(c2=O)CCCC3)c(F)cc1Cl)OC (mixture of isomers) [Example 2-8]	5 (Herbicidal effect/phytotoxicity was 90% or greater)	5 (Herbicidal effect/phytotoxicity was 90% or greater)	5 (Herbicidal effect/phytotoxicity was 90% or greater)	2 (Herbicidal effect/phytotoxicity was 30% to 50%)
CCS(=O)(=O)Nc1cc(-c2c(Cl)n3n(c2=O)CCCC3)c(F)cc1Cl [Example 5-51]	5 (Herbicidal effect/phytotoxicity was 90% or greater)	5 (Herbicidal effect/phytotoxicity was 90% or greater)	5 (Herbicidal effect/phytotoxicity was 90% or greater)	0 (Herbicidal effect/phytotoxicity was 0% to 10%)
CC(C)Oc1cc(-c2c(Cl)n3n(c2=O)CCCC3)ccc1Cl [Example 1-49]	5 (Herbicidal effect/phytotoxicity was 90% or greater)	5 (Herbicidal effect/phytotoxicity was 90% or greater)	5 (Herbicidal effect/phytotoxicity was 90% or greater)	0 (Herbicidal effect/phytotoxicity was 0% to 10%)
C=C(COc1cc(-c2c(Cl)n3n(c2=O)CCCC3)c(F)cc1Cl)c1cccc(Cl)c1 [Example 1-228]	5 (Herbicidal effect/phytotoxicity was 90% or greater)	5 (Herbicidal effect/phytotoxicity was 90% or greater)	5 (Herbicidal effect/phytotoxicity was 90% or greater)	1 (Herbicidal effect/phytotoxicity was 10% to 30%)
CC1(COc2cc(-c3c(Cl)n4n(c3=O)CCCC4)c(F)cc2Cl)CC(c2ccccc2)=NO1 (stereo not drawn) [Example 4-1]	5 (Herbicidal effect/phytotoxicity was 90% or greater)	5 (Herbicidal effect/phytotoxicity was 90% or greater)	5 (Herbicidal effect/phytotoxicity was 90% or greater)	0 (Herbicidal effect/phytotoxicity was 0% to 10%)
COc1cc(-c2c(Cl)n3n(c2=O)CCCCC3)c(F)cc1Cl [Example 1-141]	5 (Herbicidal effect/phytotoxicity was 90% or greater)	5 (Herbicidal effect/phytotoxicity was 90% or greater)	5 (Herbicidal effect/phytotoxicity was 90% or greater)	0 (Herbicidal effect/phytotoxicity was 0% to 10%)
O=c1c(-c2cc(OC3CCCC3)c(Cl)cc2F)c(Cl)n2n1CCCCC2 [Example 1-182]	5 (Herbicidal effect/phytotoxicity was 90% or greater)	5 (Herbicidal effect/phytotoxicity was 90% or greater)	5 (Herbicidal effect/phytotoxicity was 90% or greater)	1 (Herbicidal effect/phytotoxicity was 10% to 30%)
